Tests used:
[1] = torcetrapib and atorvastatin concomitantly compared with atorvastatin alone; cited from earlier work
[2] = anacetrapib with baseline statin therapy compared with patients treated with just a statin; cited from earlier work
[3] = Phase III outcomes trial, cited from earlier work
[4] = target: T1, endogenous CETP from serum (Homo sapiens, UniProt P11597); assay: RTA assay in 95% human serum (in vitro radioactive assay of CETP-catalyzed CE and TG transfer, endogenous CETP); assay type: biochemical; conditions: read-out: IC50 RTA (95% HS)
T1 construct: yielding a concentration of approximately 15 nM endogenous CETP in the assay; from tissue; host or cells: human serum
T1 sequence (P11597 18-493): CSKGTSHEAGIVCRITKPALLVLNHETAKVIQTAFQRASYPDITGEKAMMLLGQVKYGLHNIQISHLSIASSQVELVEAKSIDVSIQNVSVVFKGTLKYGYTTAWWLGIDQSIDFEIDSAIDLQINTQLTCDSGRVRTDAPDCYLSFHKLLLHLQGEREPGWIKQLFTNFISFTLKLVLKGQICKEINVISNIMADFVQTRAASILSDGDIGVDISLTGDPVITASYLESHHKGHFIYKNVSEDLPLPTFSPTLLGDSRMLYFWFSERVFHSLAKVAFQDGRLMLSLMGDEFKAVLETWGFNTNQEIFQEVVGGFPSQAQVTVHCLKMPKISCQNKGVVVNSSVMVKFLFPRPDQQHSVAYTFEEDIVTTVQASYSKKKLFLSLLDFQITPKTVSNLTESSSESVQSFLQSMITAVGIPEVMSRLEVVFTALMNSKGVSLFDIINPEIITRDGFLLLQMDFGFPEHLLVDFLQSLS
Description: In Vitro Radioactive Assays of CETP-Catalyzed CE and TG Transfer (RTA Assay)
Reagents and sources are: [3H] cholesteryl oleate (GE #TRK.886), [3H] Triolein (Perkin-Elmer NET-431), Butylated hydroxyl toluene (Aldrich, #D4740-4), DOPC (Sigma, # P6354), Sodium Bromide (Fisher scientific #S255-500), PEG 8000 (Fisher, #BP233-1), and human HDL (Intracel Corp #RP-036).
An in vitro assay for determining IC50's to identify compounds that inhibit CETP transfer activity is performed based on a modification of a published method (Morton and Zilversmit, (1981) A plasma inhibitor of triglyceride and cholesteryl ester transfer activities, J. Biol. Chem. 256(23), 11992-11995). The ability of inhibitors to alter CETP activity is performed using two different assays: one using recombinant CETP and one using an endogenous plasma source of CETP. Both assays measure the transfer of [3H] cholesteryl oleate or [3H] triolein from exogenous LDL to HDL.
Radiolabeled donor particles are generated by first combining 100 μl of 200 μM butylated hydroxyl toluene in CHCl3, 216 μL of 21.57 mM DOPC in EtOH, and either 500 μCi [3H]-triolein (Perkin Elmer #NET-431) or 500 μCi [3H]-cholesteryl oleate (GE #TRK886) in a glass tube. Reagents are mixed, dried under nitrogen, and then resuspended in 2 mL of 50 mM Tris, 27 μM EDTA at pH 7.4. After a brief vortex, the solution is sonicated until clear and mixed with 20 mL of fresh human serum. The mixture is incubated overnight at 37° C. The [3H] labeled LDL substrate is separated at 1.063 g/ml density by sequential ultracentrifugal flotation in NaBr according to the method of Havel, Eder, et al., 1955, and Chapman, Goldstein, et al., 1981. Once isolated the particles are dialyzed 3× in CETP buffer (50 mM Tris, pH 7.4, 100 mM NaCl, 1 mM EDTA). Human HDL is purchased from Intracel and used as the acceptor particles.
Transfer assays are performed in a 96-well v-bottom polypropylene plate. For the RTA using recombinant CETP (2% RTA), an assay cocktail is prepared with the final concentrations 128 μg/mL HDL, 20 nM rCETP, 2% human serum, and 1×CETP buffer. 1 μL of each test compound diluted in DMSO is added to 47 μL of assay cocktail per well and incubated at 37° C. for 1 hour. To initiate the transfer reaction, 2 μL radiolabeled LDL is added. After an additional 60 min of incubation at 37° C., the transfer action is terminated by precipitation of LDL with an equal volume of 20% WN PEG 8000. The plates are centrifuged at 2000 rpm for 30 minutes at 4° C. A 40 μL aliquot of the HDL-containing supernatant is transferred to a Packard Optiplate™ with 200 μL of MicroScint™ 20. After mixing, plates are counted by liquid scintillation. Counts present in the supernatant for blanks (wells containing only HDL acceptor, CETP buffer and DMSO) are subtracted from those containing test compounds and used to correct for non-specific transfer.
For the transfer assay using endogenous CETP from serum (95% RTA), the same procedure is used except that human serum is added such that a final concentration of serum of 95% of the total assay volume is achieved, yielding a concentration of approximately 15 nM endogenous CETP in the assay. This is then combined with HDL and CETP buffer and the reaction proceeds as above and is terminated as described.
Comparison of the counts of samples with inhibitors to an uninhibited (DMSO only) positive control yield a percent inhibition. A plot of percent inhibition vs. log of inhibitor concentration, fit to a Sigmoidal 4 parameter equation is used to calculate IC50.
Starting materials are commercially available or are made using known procedures or as shown below. The examples may be synthesized according to the general schemes provided below and by using the synthetic intermediates that are described. The data reported for the examples below were obtained using the RTA assay in 95% human serum.

Compound: CCOC(=O)N1c2ccc(C(F)(F)F)cc2[C@@H](N(Cc2cc(C(F)(F)F)cc(C(F)(F)F)c2)C(=O)OC)C[C@H]1CC [torcetrapib]
- mortality [1]: higher incidence of mortality

Compound: COc1cc(F)c(C(C)C)cc1-c1ccc(C(F)(F)F)cc1CN1C(=O)O[C@H](c2cc(C(F)(F)F)cc(C(F)(F)F)c2)[C@@H]1C [anacetrapib]
- decrease of LDL-C [2]: 40%
- increase of HDL-C [2]: 138%

Compound: CCC(CC)CC1(C(=O)Nc2ccccc2SC(=O)C(C)C)CCCCC1 [dalcetrapib]
- clinical benefit (interim data) ([3]; terminated early): did not show a clinical benefit
- safety issues [3]: no safety issues detected

Compound: COc1ccc(-c2ccc(C(=O)O)cc2C)cc1-c1ccc(C(F)(F)F)cc1CC1=NO[C@@H](c2cc(C(F)(F)F)cc(C(F)(F)F)c2)[C@H]1C [Example 3A, 2″-(((4S,5R)-5-(3,5-bis(trifluoromethyl)phenyl)-4-methyl-4,5-dihydroisoxazol-3-yl)methyl)-4′-methoxy-2-methyl-4″-(trifluoromethyl)-[1,1′:3′,1″-terphenyl]-4-carboxylic acid]
- IC50 [4]: > 10 µM
